Laboratory results as given in patent publication US4199512A, “Compounds for alleviating hypertension” (E. R. Squibb & Sons, Inc., priority 1978, dated 1980).
Each block holds one compound with its values, some of them ahead of it.

Assays:
[1] = test system: angiotensin I converting enzyme in excised guinea pig ileum; assay: Inhibition of angiotensin I converting enzyme in excised guinea pig ileum (contractile activity of angiotensin I); conditions: Krebs solution at 37°; angiotensin I 25 ng/ml
Description: The procedure for evaluating the inhibition of angiotensin I converting enzyme in excised guinea pig ileum is carried out as follows: varying concentrations of the compound are added to an excised guinea pig ileum bath in Krebs solution at 37°, aerated with a mixture of 95% O2 -5% CO2. After two minutes, angiotensin I (25 ng/ml) is added and the isotonic […] are measured. The concentration of representative compounds of the present invention (in micrograms/ml) which inhibit the contractile activity of angiotensin I by 50% (IC50) are shown in the following table: […]

[2] = biological target: T1, angiotensin converting enzyme (Oryctolagus cuniculus, UniProt P12822); assay: Inhibition of isolated angiotensin-converting enzyme of rabbit lung (cleavage of hippuryl-L-histidyl-L-leucine); format: biochemical; parameters: isolated angiotensin converting enzyme from rabbit lungs; from tissue; host or cells: rabbit lung; conditions: 5 mM hippuryl-L-histidyl-L-leucine; pH 8.3; 30 minutes at 37° C.; read-out: I50 (50% inhibition of angiotensin-converting enzyme) (converted)
T1 sequence (P12822 34-1310): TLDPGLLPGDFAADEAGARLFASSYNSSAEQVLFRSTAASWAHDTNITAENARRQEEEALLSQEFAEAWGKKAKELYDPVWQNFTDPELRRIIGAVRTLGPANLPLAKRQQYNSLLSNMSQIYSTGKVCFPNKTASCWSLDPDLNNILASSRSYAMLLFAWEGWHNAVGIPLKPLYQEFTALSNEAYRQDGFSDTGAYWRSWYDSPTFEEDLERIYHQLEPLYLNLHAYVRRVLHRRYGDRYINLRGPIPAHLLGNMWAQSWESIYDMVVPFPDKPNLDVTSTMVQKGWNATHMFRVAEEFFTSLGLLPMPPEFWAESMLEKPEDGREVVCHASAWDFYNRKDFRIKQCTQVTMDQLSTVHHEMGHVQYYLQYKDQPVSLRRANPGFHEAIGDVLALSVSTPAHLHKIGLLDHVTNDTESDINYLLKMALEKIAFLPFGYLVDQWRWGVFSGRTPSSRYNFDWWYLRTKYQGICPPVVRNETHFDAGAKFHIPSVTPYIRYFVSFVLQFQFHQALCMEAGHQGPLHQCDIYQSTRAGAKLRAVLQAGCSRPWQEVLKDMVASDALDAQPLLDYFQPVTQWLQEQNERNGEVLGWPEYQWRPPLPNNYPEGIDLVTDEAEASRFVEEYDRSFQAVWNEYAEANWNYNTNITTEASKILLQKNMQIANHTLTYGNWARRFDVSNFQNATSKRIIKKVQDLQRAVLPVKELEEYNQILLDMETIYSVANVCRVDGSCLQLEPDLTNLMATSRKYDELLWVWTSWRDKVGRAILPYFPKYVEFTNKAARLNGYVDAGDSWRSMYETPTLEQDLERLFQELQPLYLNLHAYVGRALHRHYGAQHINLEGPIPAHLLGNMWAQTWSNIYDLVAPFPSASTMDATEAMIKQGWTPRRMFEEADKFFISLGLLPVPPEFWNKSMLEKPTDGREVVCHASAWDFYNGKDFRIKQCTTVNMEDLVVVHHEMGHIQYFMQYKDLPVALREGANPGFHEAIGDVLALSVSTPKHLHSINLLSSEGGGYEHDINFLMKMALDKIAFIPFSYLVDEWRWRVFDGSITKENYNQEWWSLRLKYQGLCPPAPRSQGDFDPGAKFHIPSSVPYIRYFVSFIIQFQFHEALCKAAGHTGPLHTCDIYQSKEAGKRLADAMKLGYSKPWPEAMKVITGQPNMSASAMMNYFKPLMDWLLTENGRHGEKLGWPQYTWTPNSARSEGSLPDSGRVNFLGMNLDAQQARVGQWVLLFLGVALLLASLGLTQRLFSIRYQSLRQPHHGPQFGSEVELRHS
Text: Although conversion of angiotensin I to angiotensin II by angiotensin-converting enzyme is probably the reaction of most importance in the pathology of hypertension, the activity of the isolated enzyme is more conveniently and accurately assayed by measuring its rate of cleavage of a simpler peptide substrate, hippuryl-L-histidyl-L-leucine. For determination of I50 values (concentrations of compounds expressed in micrograms/ml producing a 50% inhibition of angiotensin-converting enzyme) various concentrations of each compound are added to 13×100 mm tubes along with the following components at the indicated final concentrations in a final volume of 0.25 ml: 100 mM potassium phosphate buffer, pH 8.3; 300 mM sodium chloride; 5 mM hippuryl-L-histidyl-L-leucine; and 5 milliunits of angiotensin-converting enzyme of rabbit lung. Controls containing no inhibitor (100% activity), and those acidified before addition of the enzyme (0% activity) are similarly prepared. All of the enzymatic reactions are initiated by addition of the enzyme component; tubes are incubated for 30 minutes at 37° C.; and reactions are terminated by addition of 0.25 ml. of 1 N HCl. The hippuric acid formed by action of angiotensin-converting enzyme on hippuryl-L-histidyl-L-leucine is extracted into ethyl acetate, evaporated to dryness, redissolved in water and quantitated from its absorbance at 228 nm. The percent inhibition by each concentration of compound is calculated by comparison with the 0% and 100% activity controls. The concentrations of representative compounds of the present invention which inhibit activity of angiotensin-converting enzyme by 50% are shown in the following table: […]

[3] = test system: angiotensin I pressor response; assay: Inhibition of angiotensin I pressor response in unanesthetized rats, oral; format: in vivo, rat (male, Sprague-Dawley); conditions: angiotensin I 0.31 μg/kg, 2 animals
Description: Representative compounds of the present invention are administered orally to unanesthetized male rats of the Sprague-Dawley strain, weighing about 200 g., followed by an injection of 0.31 μg/kg of angiotensin I. The following table indicates the degree of inhibition obtained.

[4] = test system: 2-kidney Goldblatt renal hypertensive rat; assay: Mean blood pressure in 2-kidney Goldblatt renal hypertensive rat, oral; format: in vivo, rat (male, CF Nelson); conditions: second dosage day, 300 mg oral
Text: Male rats of the CF Nelson strain are anesthetized with ether and each left renal artery is partially constricted with a silver clip (i.d. 0.22 mm). The right kidney and renal artery are left intact.

[5] = test system: anesthetized normotensive rats; conditions: intravenous; cited from earlier work
[6] = test system: angiotensinogen and renin blood levels; conditions: normotensive rats; cited from earlier work
normotensive rat = assay: Blood pressure in normotensive rat, oral; format: in vivo; conditions: same dose (300 mg) orally
[7] = in vivo; cited from earlier work

Compound: O=C(CCS)N[C@@H](Cc1ccccc1)C(=O)O [Example 6, N-(3-Mercaptopropanoyl)-L-phenylalanine]
- IC50 (inhibit the contractile activity of angiotensin I by 50%) [1]: 0.52 µg/mL
- IC50 [2]: 3.39 µM

Compound: CN(CC(=O)O)C(=O)CCS [Example 10, N-(3-Mercaptopropanoyl)sarcosine]
- IC50 (inhibit the contractile activity of angiotensin I by 50%) [1]: 0.94 µg/mL
- IC50 [2]: 10.2 µM

Compound: N=C(N)NCCC[C@H](NC(=O)C(CS)Cc1ccccc1)C(=O)O (stereo partly drawn) [Example 34, N^α -(3-mercapto-2-benzylpropanoyl)-L-arginine]
- IC50 (inhibit the contractile activity of angiotensin I by 50%) [1]: 4.1 µg/mL

Compound: CC(S)C(=O)NCC(=O)O (stereo not shown) [Example 51, N-2-Mercaptopropanoylglycine]
- Mean blood pressure ([4]; Rat #9, 1 h after drug, before drug 222): 206 mm Hg
- Mean blood pressure ([4]; Rat #9, 2 h after drug, before drug 222): 173 mm Hg
- Mean blood pressure ([4]; Rat #9, 3 h after drug, before drug 222): 157 mm Hg
- Mean blood pressure ([4]; Rat #9, 4 h after drug, before drug 222): 184 mm Hg
- Mean blood pressure ([4]; Rat #9, 5 h after drug, before drug 222): 206 mm Hg
- Mean blood pressure ([4]; Rat #9, 6 h after drug, before drug 222): 199 mm Hg
- Mean blood pressure ([4]; Rat #10, 1 h after drug, before drug 206): 203 mm Hg
- Mean blood pressure ([4]; Rat #10, 2 h after drug, before drug 206): 190 mm Hg
- Mean blood pressure ([4]; Rat #10, 3 h after drug, before drug 206): 189 mm Hg
- Mean blood pressure ([4]; Rat #10, 4 h after drug, before drug 206): 199 mm Hg
- Mean blood pressure ([4]; Rat #10, 5 h after drug, before drug 206): 195 mm Hg
- Mean blood pressure ([4]; Rat #10, 6 h after drug, before drug 206): 197 mm Hg
- IC50 (inhibit the contractile activity of angiotensin I by 50%) [1]: 2.0 µg/mL
- lowering of the blood pressure [5]: produced lowering of the blood pressure
- % maximum inhibition of angiotensin I pressor response ± SE ([3]; 10 mg/kg oral): 29.9 ± 3.1%
- % maximum inhibition of angiotensin I pressor response ± SE ([3]; 30 mg/kg oral): 52.9 ± 15.8%
- % maximum inhibition of angiotensin I pressor response ± SE ([3]; 100 mg/kg oral): 64.9 ± 12.3%
- angiotensinogen [6]: increases angiotensinogen
- renin blood levels [6]: lowers renin blood levels
- effects on blood pressure (normotensive rat): no significant effects on blood pressure
- IC50 [2]: 15.9 µM
- effects of blood pressure [7]: no noticeable effects of blood pressure

The next lines start with results.

- IC50 (inhibit the contractile activity of angiotensin I by 50%) [1]: 0.94 µg/mL
- IC50 [2]: 6.77 µM
Compound: C[C@H](NC(=O)CCS)C(=O)O [Example 2, N-(3-mercaptopropanoyl)-L-alanine]

- IC50 (inhibit the contractile activity of angiotensin I by 50%) [1]: 2.0 µg/mL
- IC50 [2]: 8.21 µM
Compound: CC(C)C[C@H](NC(=O)CCS)C(=O)O [Example 4, N-(3-Mercaptopropanoyl)-L-leucine]

- IC50 (inhibit the contractile activity of angiotensin I by 50%) [1]: 0.9 µg/mL
- IC50 [2]: 0.648 µM
Compound: N=C(N)NCCC[C@H](NC(=O)CCS)C(=O)O [Example 8, N^α -(3-Mercaptopropanoyl)-L-arginine]

- IC50 (inhibit the contractile activity of angiotensin I by 50%) [1]: 4.5 µg/mL
- IC50 [2]: 12.3 µM
Compound: O=C(O)CNC(=O)CCS [Example 15, N-(3-Mercaptopropanoyl)glycine]
- % maximum inhibition of angiotensin I pressor response ± SE ([3]; 10 mg/kg oral): 34.2 ± 6.7%
- % maximum inhibition of angiotensin I pressor response ± SE ([3]; 100 mg/kg oral): 61.5 ± 1.2%
